# According to patent US20050226878A1, “Therapeutic combinations and methods including IRM compounds” (3M Innovative Properties Company, priority 2003, published 2005):
# How the values were obtained:
# [1] = tested on: Peripheral blood mononuclear cells (PBMCs); assay: Example 1: IFN-α secreted by PBMCs treated with IRM1 after dexamethasone pre-incubation (ELISA); format: cell-based, human; conditions: IRM1 1 μM, no dexamethasone, 24 hours
# Source text: (§1) Whole blood from healthy human donors was collected by venipuncture into EDTA vacutainer tubes (Becton Dickinson Labware, Lincoln Park, N.J.). Peripheral blood mononuclear cells (PBMCs) are separated from whole blood by density gradient centrifugation using HISTOPAQUE-1077 (Sigma-Aldrich Chemical Co., St. Louis, Mo.). The PBMCs are washed twice with Hank's Balanced Salts Solution (Celox Laboratories, Inc., Hopkins, Minn.) and then are suspended at 3-4×10^6 cells/mL in RPMI complete culture medium (Celox Laboratories, Inc., Hopkins, Minn.). The PBMC suspension was added to 48 well flat bottom sterile tissue culture plates (Becton Dickinson Labware, Lincoln Park, N.J.) containing an equal volume of RPMI complete media containing dexamethasone (Sigma Chemical Co., St. Louis, Mo.) at one of the dexamethasone concentrations indicated in Table 2. After one hour, IRMI was added to a final concentration of 1 μM, and then incubated at 37° C. for an additional 24 hours. Following incubation the cells were centrifuged for 5-10 minutes at 1000 rpm (˜200×g) at 4° C. […] The samples were analyzed for IFN-α and TNF-α secreted into the culture medium. The concentration of secreted IFN-α was determined by ELISA using a Human Multi-Species kit (PBL Biomedical Laboratories, Piscataway, N.J.). […]
# [2] = tested on: Peripheral blood mononuclear cells (PBMCs); assay: Example 1: TNF-α secreted by PBMCs treated with IRM1 after dexamethasone pre-incubation (ELISA); format: cell-based, human; conditions: IRM1 1 μM, no dexamethasone, 24 hours
# Source text: as §1
# Human PBMCs [3] = assay: Example 4: TNF-α secreted by PBMCs with or without anti-TNF monoclonal antibody (ELISA); format: cell-based; conditions: IRM2 1.0 μg/mL, LPS 0.1 μg/mL, 24 hours
# Protocol: (§2) Human PBMCs were collected and prepared as described in Example 1. The cells were incubated with an anti-TNF monoclonal antibody (mouse anti-human TNF, Promega Corp., Madison, Wis.). After one hour, the cells were treated with IRM compound, LPS, or left unstimulated, and then incubated for an additional 24 hours.
# (§3) Secreted TNF-α and IL-6 were assayed by ELISA (Biosource International, Inc., Camarillo, Calif.). Results are expressed in pg/mL for each cytokine.
# male CFW mice = assay: Example 3: serum TNF in mice challenged with IRM2 after oral dexamethasone (ELISA); format: in vivo; conditions: IRM2 10 mg/kg, no dexamethasone
# Protocol: A dexamethasone solution was prepared in saline and administered orally (3 mg/kg) to male CFW mice (Charles River Laboratories, Inc., Wilmington, Mass.) once or once daily for five days. Thirty minutes after the final administration of dexamethasone, the mice were challenged with a solution of IRM2 prepared in saline to provide a dose of 10 mg/kg. The mice were bled either 2 hours or 3 hours after being challenged with IRM2. Serum samples were analyzed by for TNF by ELISA as described in Example 1.
# Human PBMCs [4] = assay: Example 4: IFN secreted by PBMCs with or without anti-TNF monoclonal antibody (virus neutralization bioassay, A549 cells/encephalomyocarditis virus); format: cell-based; conditions: IRM2 1.0 μg/mL, LPS 0.1 μg/mL, 24 hours
# Protocol: as §2
# Secreted IFN was assayed using a virus neutralization bioassay using A549 human lung carcinoma cells challenged with encephalomyocarditis. The details of the bioassay method have been described by G. L. Brennan and L. H. Kronenberg in “Automated Bioassay of Interferons in Micro-test Plates”, Biotechniques, June/July, 78, 1983, incorporated herein by reference. Briefly stated the method is as follows: A549 cells are incubated with dilutions of samples or a standard interferon at 37° C. for 24 hours. The incubated cells are then infected with an inoculum of encephalomyocarditis virus. The infected cells are incubated for an additional 24 hours at 37° C. before evaluating for viral cytopathic effect. The viral cytopathic effect is quantified by staining with crystal violet followed by visual scoring of the plates. Results are expressed as alpha reference units/mL based on the value obtained for NIH Human Leukocyte IFN standard.
# Human PBMCs [5] = assay: Example 4: IL-6 secreted by PBMCs with or without anti-TNF monoclonal antibody (ELISA); format: cell-based; conditions: IRM2 1.0 μg/mL, LPS 0.1 μg/mL, 24 hours
# Protocol: as §2, §3
# Human PBMCs [6] = assay: Example 2: TNF-α secreted by PBMCs treated with IRM compound or LPS after dexamethasone pre-incubation (ELISA); format: cell-based; conditions: IRM2 1.0 μg/mL, LPS 0.1 μg/mL, 24 hours
# Protocol: Human PBMCs were collected and prepared as described in Example 1. After one hour, the cells were treated with IRM compound, LPS, or left unstimulated, and then incubated for an additional 24 hours.
# Secreted TNF-α was assayed by ELISA (Biosource International, Inc., Camarillo, Calif.).
# PBMCs [7] = assay: Example 6: TNF-α induction by PBMCs with anti-TNF antibody or isotype control (immunoassay, FIG. 2); format: cell-based, human; conditions: for TNF-α induced in combination with anti-TNF antibody: IRM 3 μM + 1 μg/mL anti-TNF antibody, FIG. 2B; for TNF-α induction: IRM 3 μM alone (isotype control antibody), FIG. 2A
# Protocol: (§4) Whole blood from healthy human donors was collected by venipuncture into EDTA vacutainer tubes (Becton Dickinson Labware, Lincoln Park, N.J.). […] The PBMCs are washed twice with Phosphate Buffered Saline (PBS, Biosource, Camarillo, Calif.) and then are suspended at 5×10^6 cells/mL in RPMI complete culture medium (Celox Laboratories, Inc., Hopkins, Minn.). One milliliter of the PBMC suspension and 1.5 milliliter of RPMI complete media were added to each well of a 24 well flat bottom sterile tissue culture plate (Becton Dickinson Labware, Lincoln Park, N.J.) for a final PBMC concentration of 2×10^6 cells/mL.
# (§5) Following incubation the cells were centrifuged for 5-10 minutes at 1000 rpm (˜200×g) at 4° C. The cell-free culture supernatant was removed with a sterile polypropylene pipette and transferred to sterile polypropylene tubes. Samples were maintained at −70° C. until analysis.
# (§6) The samples were analyzed for IFN-α, TNF-α and IFN-γ secreted into the culture medium. The concentration of secreted IFN-α was determined by ELISA using a Human Multi-Species kit (PBL Biomedical Laboratories, Piscataway, N.J.). Secreted TNF-α and IFN-γ were analyzed using a human-specific TNF-α BV™ or IFN-γ BV™ immunoassay (BioVeris Corp., Gaithersburg, Md.).
# PBMCs [8] = assay: Example 6: IFN-α induction by PBMCs with anti-TNF antibody or isotype control (ELISA, FIG. 1); format: cell-based, human; conditions: for IFN-α produced in combination with anti-TNF antibody versus IRM alone: IRM 3 μM + 1 μg/mL anti-TNF antibody, FIG. 1B versus FIG. 1A
# Protocol: as §4, §5, §6
# [9] = +Ab (anti-TNF monoclonal antibody)
smiles,measurement,setting,value
"CCOCc1nc2c(N)nc3ccccc3c2n1CC(C)(C)O [IRM1, 4-amino-α,α-dimethyl-2-ethoxymethyl-1H-imidazo[4,5-c]quinolin-1-ethanol]",IFN,[1],959 U/mL
same,TNF,[2],3000 pg/mL
"Cc1nc2c(N)nc3ccccc3c2n1CC(C)(C)O [IRM2, 4-amino-α,α,2-trimethyl-1H-imidazo[4,5-c]quinoline-1-ethanol]",TNF,Human PBMCs [3]; [9],61 pg/mL
same,TNF,Human PBMCs [3]; No Ab,1340 pg/mL
same,Serum TNF,male CFW mice; 2 hrs. post-challenge,2983 pg/mL
same,Serum TNF,male CFW mice; 3 hrs. post-challenge,487 pg/mL
same,IFN,Human PBMCs [4]; [9],290 U/mL
same,IFN,Human PBMCs [4]; No Ab,460 U/mL
same,IL-6,Human PBMCs [5]; [9],24189 pg/mL
same,IL-6,Human PBMCs [5]; No Ab,20137 pg/mL
same,Secreted TNF-α,Human PBMCs [6]; 0 μM Dex.,1570 pg/mL
same,Secreted TNF-α,Human PBMCs [6]; 0.01 μM Dex.,775 pg/mL
same,Secreted TNF-α,Human PBMCs [6]; 0.1 μM Dex.,224 pg/mL
same,Secreted TNF-α,Human PBMCs [6]; 1.0 μM Dex.,191 pg/mL
"CCOCc1nc2c(N)nc3c(c2n1CC(C)(C)O)CCCC3 [IRM5, 4-amino-2-(ethoxymethyl)-α,α-dimethyl-6,7,8,9-tetrahydro-1H-imidazo[4,5-c]quinoline-1-ethanol]",TNF-α induced in combination with anti-TNF antibody,PBMCs [7],substantially limited
same,TNF-α induction,PBMCs [7],significant levels
same,IFN-α produced in combination with anti-TNF antibody versus IRM alone,PBMCs [8],increased levels
"CCc1nc2c(N)nc3ccccc3c2n1CCCCNS(C)(=O)=O [IRM8, N-[4-(4-amino-2-ethyl-1H-imidazo[4,5-c]quinolin-1-yl)butyl]methanesulfonamide]",TNF-α induction,PBMCs [7],relatively poor inducer
same,IFN-α produced in combination with anti-TNF antibody versus IRM alone,PBMCs [8],increased levels
same,IFN-α induction,"PBMCs [8]; IRM 3 μM alone (isotype control antibody), FIG. 1A, compared to other IRM compounds",relatively potent inducer
"COCCc1nc2c(N)nc3ccccc3c2n1CCOCCNC(=O)N1CCOCC1 [IRM12, N-(2-{2-[4-amino-2-(2-methoxyethyl)-1H-imidazo[4,5-c]quinolin-1-yl]ethoxy}ethyl)morpholine-4-carboxamide]",TNF-α induced in combination with anti-TNF antibody,PBMCs [7],substantially limited
same,TNF-α induction,PBMCs [7],significant levels
same,IFN-α produced in combination with anti-TNF antibody versus IRM alone,PBMCs [8],increased levels
